Reference: PubChem BioAssay (NCI)
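Cultured in 96-well plates, cells were exposed to test compound for 48 hours across five concentrations. Abbreviation: GI50, concentration required for 50% inhibition of growth. TGI is the concentration that stops growth completely.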

Experiments:
Experiment in all cases: NCI tumour cell line growth inhibition, 48 h
K-562 leukemia = system: K-562 leukemia
U251 CNS = system: U251 CNS
HT29 colon = system: HT29 colon
SK-MEL-28 melanoma = system: SK-MEL-28 melanoma
COLO 205 colon = system: COLO 205 colon
HCT-15 colon = system: HCT-15 colon
OVCAR-8 ovarian = system: OVCAR-8 ovarian
A549 NSCLC = system: A549 NSCLC
DU-145 prostate = system: DU-145 prostate
UACC-257 melanoma = system: UACC-257 melanoma
MOLT-4 leukemia = system: MOLT-4 leukemia
SK-MEL-5 melanoma = system: SK-MEL-5 melanoma
EKVX NSCLC = system: EKVX NSCLC
A498 renal = system: A498 renal
MALME-3M melanoma = system: MALME-3M melanoma
SF-539 CNS = system: SF-539 CNS
ACHN renal = system: ACHN renal
M14 melanoma = system: M14 melanoma
KM12 colon = system: KM12 colon
HCT-116 colon = system: HCT-116 colon
PC-3 prostate = system: PC-3 prostate
HOP-92 NSCLC = system: HOP-92 NSCLC
NCI-H226 lung = system: NCI-H226 lung
SNB-19 CNS = system: SNB-19 CNS
HL-60(TB) leukemia = system: HL-60(TB) leukemia
BT-549 breast = system: BT-549 breast
UO-31 renal = system: UO-31 renal
MDA-MB-231 breast = system: MDA-MB-231 breast
CAKI-1 renal = system: CAKI-1 renal
IGROV1 ovarian = system: IGROV1 ovarian
NCI/ADR-RES ovarian = system: NCI/ADR-RES ovarian
HS 578T breast = system: HS 578T breast
SN12C renal = system: SN12C renal
786-0 renal = system: 786-0 renal
MCF7 breast = system: MCF7 breast
HCC-2998 colon = system: HCC-2998 colon
RPMI-8226 leukemia = system: RPMI-8226 leukemia
SW-620 colon = system: SW-620 colon
CCRF-CEM leukemia = system: CCRF-CEM leukemia
SK-MEL-2 melanoma = system: SK-MEL-2 melanoma
NCI-H522 lung = system: NCI-H522 lung
TK-10 renal = system: TK-10 renal
OVCAR-5 ovarian = system: OVCAR-5 ovarian
NCI-H460 lung = system: NCI-H460 lung
T-47D breast = system: T-47D breast
LOX IMVI melanoma = system: LOX IMVI melanoma
OVCAR-3 ovarian = system: OVCAR-3 ovarian
MDA-MB-435 = system: MDA-MB-435
SK-OV-3 ovarian = system: SK-OV-3 ovarian
SNB-75 CNS = system: SNB-75 CNS
OVCAR-4 ovarian = system: OVCAR-4 ovarian
SF-268 CNS = system: SF-268 CNS
UACC-62 melanoma = system: UACC-62 melanoma
SF-295 CNS = system: SF-295 CNS
RXF 393 renal = system: RXF 393 renal
NCI-H23 lung = system: NCI-H23 lung
HOP-62 NSCLC = system: HOP-62 NSCLC

Compound: COc1cc(/C=C2\CC(C)CC3C2=NN(c2ccccc2)C3c2cc(OC)c(OC)c(OC)c2)cc(OC)c1OC (stereo not drawn)
- GI50 (K-562 leukemia): 6.4 µM
- TGI (K-562 leukemia): > 100 µM
- GI50 (U251 CNS): 9.77 µM
- TGI (U251 CNS): 39 µM
- GI50 (HT29 colon): 11.1 µM
- TGI (HT29 colon): 39.9 µM
- GI50 (SK-MEL-28 melanoma): 11.2 µM
- TGI (SK-MEL-28 melanoma): 39.7 µM
- GI50 (COLO 205 colon): 17.5 µM
- TGI (COLO 205 colon): > 100 µM
- GI50 (HCT-15 colon): 11.2 µM
- TGI (HCT-15 colon): 25.6 µM
- GI50 (OVCAR-8 ovarian): 10.2 µM
- TGI (OVCAR-8 ovarian): > 100 µM
- GI50 (A549 NSCLC): 14.9 µM
- TGI (A549 NSCLC): > 100 µM
- GI50 (DU-145 prostate): 15.4 µM
- TGI (DU-145 prostate): 45.7 µM
- GI50 (UACC-257 melanoma): 20.4 µM
- TGI (UACC-257 melanoma): > 100 µM
- GI50 (MOLT-4 leukemia): 13 µM
- TGI (MOLT-4 leukemia): > 100 µM
- GI50 (SK-MEL-5 melanoma): 11.8 µM
- TGI (SK-MEL-5 melanoma): 24.2 µM
- GI50 (EKVX NSCLC): 13.5 µM
- TGI (EKVX NSCLC): > 100 µM
- GI50 (A498 renal): 13.5 µM
- TGI (A498 renal): 42.5 µM
- GI50 (MALME-3M melanoma): 21.3 µM
- TGI (MALME-3M melanoma): > 100 µM
- GI50 (SF-539 CNS): 16.6 µM
- TGI (SF-539 CNS): 36.2 µM
- GI50 (ACHN renal): 11 µM
- TGI (ACHN renal): 44.6 µM
- GI50 (M14 melanoma): 14.9 µM
- TGI (M14 melanoma): 52.1 µM
- GI50 (KM12 colon): 7.28 µM
- TGI (KM12 colon): 40.8 µM
- GI50 (HCT-116 colon): 6.21 µM
- TGI (HCT-116 colon): 33.1 µM
- GI50 (PC-3 prostate): 16.9 µM
- TGI (PC-3 prostate): > 100 µM
- GI50 (HOP-92 NSCLC): 13.6 µM
- TGI (HOP-92 NSCLC): 37.1 µM
- GI50 (NCI-H226 lung): 37.4 µM
- TGI (NCI-H226 lung): > 100 µM
- GI50 (SNB-19 CNS): 21.7 µM
- TGI (SNB-19 CNS): > 100 µM
- GI50 (HL-60(TB) leukemia): 6.48 µM
- TGI (HL-60(TB) leukemia): 90.6 µM
- GI50 (BT-549 breast): 10.1 µM
- TGI (BT-549 breast): 39.9 µM
- GI50 (UO-31 renal): 22 µM
- TGI (UO-31 renal): > 100 µM
- GI50 (MDA-MB-231 breast): 14.4 µM
- TGI (MDA-MB-231 breast): 71 µM
- GI50 (CAKI-1 renal): 26.7 µM
- TGI (CAKI-1 renal): > 100 µM
- GI50 (IGROV1 ovarian): 20.2 µM
- TGI (IGROV1 ovarian): > 100 µM
- GI50 (NCI/ADR-RES ovarian): 12.1 µM
- TGI (NCI/ADR-RES ovarian): > 100 µM
- GI50 (HS 578T breast): 18.4 µM
- TGI (HS 578T breast): 81.2 µM
- GI50 (SN12C renal): 19.8 µM
- TGI (SN12C renal): > 100 µM
- GI50 (786-0 renal): 27 µM
- TGI (786-0 renal): > 100 µM
- GI50 (MCF7 breast): 10.6 µM
- TGI (MCF7 breast): > 100 µM
- GI50 (HCC-2998 colon): 17.9 µM
- TGI (HCC-2998 colon): 37.5 µM
- GI50 (RPMI-8226 leukemia): 3 µM
- TGI (RPMI-8226 leukemia): 26.5 µM
- GI50 (SW-620 colon): 10.7 µM
- TGI (SW-620 colon): 22.5 µM
- GI50 (CCRF-CEM leukemia): 7.75 µM
- TGI (CCRF-CEM leukemia): > 100 µM
- GI50 (SK-MEL-2 melanoma): 15.6 µM
- TGI (SK-MEL-2 melanoma): 93 µM
- GI50 (NCI-H522 lung): 10.2 µM
- TGI (NCI-H522 lung): 59.3 µM
- GI50 (TK-10 renal): 24.3 µM
- TGI (TK-10 renal): 93.3 µM
- GI50 (OVCAR-5 ovarian): 53.7 µM
- TGI (OVCAR-5 ovarian): > 100 µM
- GI50 (NCI-H460 lung): 11.1 µM
- TGI (NCI-H460 lung): 28.4 µM
- GI50 (T-47D breast): 4.07 µM
- TGI (T-47D breast): 31.7 µM
- GI50 (LOX IMVI melanoma): 9.69 µM
- TGI (LOX IMVI melanoma): 27.8 µM
- GI50 (OVCAR-3 ovarian): 14.1 µM
- TGI (OVCAR-3 ovarian): > 100 µM
- GI50 (MDA-MB-435): 8.53 µM
- TGI (MDA-MB-435): 47.7 µM
- GI50 (SK-OV-3 ovarian): 9.14 µM
- TGI (SK-OV-3 ovarian): 41 µM
- GI50 (SNB-75 CNS): 25.4 µM
- TGI (SNB-75 CNS): 87.5 µM
- GI50 (OVCAR-4 ovarian): 14.2 µM
- TGI (OVCAR-4 ovarian): > 100 µM
- GI50 (SF-268 CNS): 14.1 µM
- TGI (SF-268 CNS): 44.6 µM
- GI50 (UACC-62 melanoma): 11.7 µM
- TGI (UACC-62 melanoma): 57.1 µM
- GI50 (SF-295 CNS): 10.3 µM
- TGI (SF-295 CNS): 63.7 µM

Compound: CC(SC(=S)N1CCCC1)C(=O)Nc1nnc(-c2ccc(Cl)cc2)o1 (stereo not drawn)
- TGI (K-562 leukemia): 78.7 µM
- TGI (U251 CNS): > 100 µM
- TGI (HT29 colon): 51 µM
- TGI (SK-MEL-28 melanoma): > 100 µM
- TGI (COLO 205 colon): > 100 µM
- TGI (HCT-15 colon): > 100 µM
- TGI (OVCAR-8 ovarian): > 100 µM
- TGI (A549 NSCLC): > 100 µM
- TGI (DU-145 prostate): > 100 µM
- TGI (UACC-257 melanoma): > 100 µM
- TGI (SK-MEL-5 melanoma): 82.8 µM
- TGI (A498 renal): > 100 µM
- TGI (MALME-3M melanoma): 84.2 µM
- TGI (SF-539 CNS): > 100 µM
- TGI (ACHN renal): > 100 µM
- TGI (RXF 393 renal): > 100 µM
- TGI (M14 melanoma): 37.1 µM
- TGI (HCT-116 colon): 50 µM
- TGI (PC-3 prostate): > 100 µM
- TGI (HOP-92 NSCLC): > 100 µM
- TGI (NCI-H226 lung): > 100 µM
- TGI (SNB-19 CNS): > 100 µM
- TGI (HL-60(TB) leukemia): 0.143 µM
- TGI (BT-549 breast): > 100 µM
- TGI (UO-31 renal): 63.9 µM
- TGI (NCI-H23 lung): > 100 µM
- TGI (MDA-MB-231 breast): > 100 µM
- TGI (IGROV1 ovarian): > 100 µM
- TGI (HOP-62 NSCLC): > 100 µM
- TGI (NCI/ADR-RES ovarian): > 100 µM
- TGI (HS 578T breast): > 100 µM
- TGI (SN12C renal): 59.9 µM
- TGI (786-0 renal): 32.9 µM
- TGI (MCF7 breast): > 100 µM
- TGI (HCC-2998 colon): > 100 µM
- TGI (RPMI-8226 leukemia): 44.8 µM
- TGI (SW-620 colon): > 100 µM
- TGI (SK-MEL-2 melanoma): > 100 µM
- TGI (TK-10 renal): > 100 µM
- TGI (OVCAR-5 ovarian): > 100 µM
- TGI (NCI-H460 lung): > 100 µM
- TGI (T-47D breast): > 100 µM
- TGI (LOX IMVI melanoma): 54.8 µM
- TGI (OVCAR-3 ovarian): > 100 µM
- TGI (MDA-MB-435): > 100 µM
- TGI (SK-OV-3 ovarian): > 100 µM
- TGI (SNB-75 CNS): > 100 µM
- TGI (OVCAR-4 ovarian): > 100 µM
- TGI (SF-268 CNS): 96.9 µM
- TGI (UACC-62 melanoma): > 100 µM
